Here are results for 48 compounds from the supplement of paper PMC12490022.

± gives the uncertainty stated by the source.

In the data set the test system is ozone. Briefly: apparent second-order rate constant for reaction with ozone (kapp,O3) (M-1 s-1); higher = faster oxidation by ozone. To be noted: pH 7; temperature: 22 C; OH radical scavenger: tBuOH 80 mM; phosphate 4 mM. Summed up:
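Apparent second-order rate constants for reaction with ozone came from multicompound competition kinetics, averaged (± SD) over qualifying competitors. Target/competitor mixtures (10 μg L–1 each before ozone addition) in 4 mM phosphate buffer, pH 7, with 80 mM tert-butanol were dosed with ozone solution (compound:O3 molar ratios 0.0025–100) at 22 ± 1 °C, in triplicate on three days. HPLC-HRMS/MS peak-area abatement (10–90%) was regressed against competitors of known constant, requiring ≥10 points, R2 >0.9 and slope 0.1–10.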
`NCC(O)COc1ccc(CC(N)=O)cc1` (stereo not drawn) [Desisopropylatenolol]: the “apparent second-order rate constant” value amounted to 134 ± 7.4.

In the case of `CCOC(=O)C1=CC(OC(CC)CC)C(NC(C)=O)C(N)C1` (stereo not drawn) [Oseltamivir], the “apparent second-order rate constant” value is 6130 ± 510.

Take `CCCCc1ncc(C=C(Cc2cccs2)C(=O)O)n1Cc1ccc(C(=O)O)cc1` [Eprosartan]: the “apparent second-order rate constant” value stood at 1.57e+06 ± 140000.

`CC(C)NC(=O)NS(=O)(=O)c1cnccc1Nc1cccc(C(=O)O)c1` [Torasemide carboxylic acid]: the “apparent second-order rate constant” value is 214 ± 10.

Consider `CC12C=CC(=O)C=C1CCC1C2C(=O)CC2(C)C1CCC2(O)C(=O)CO` (stereo not drawn) [Prednisone], for which the “apparent second-order rate constant” value came to 324 ± 15.

As for `O=C1CC2(CCCCC2)CN1` [Gabapentin-lactam], the “apparent second-order rate constant” value is 1.51 ± 0.16.

For the compound `COC(=O)C1C(OC(=O)c2ccccc2)CC2CCC1N2C` (stereo not drawn) [Cocaine], the “apparent second-order rate constant” value amounted to 3020 ± 260.

`Oc1cnc2c(c1)CCc1cc(Cl)ccc1C2=C1CCNCC1` [3-Hydroxydesloratadine]: the “apparent second-order rate constant” value amounted to 6.3e+07 ± 1.4e+07.

As for `O=c1nc[nH]c2c1ncn2C1CCC(CO)O1` (stereo not drawn) [Didanosine], the “apparent second-order rate constant” value came out at 4.5 ± 0.5.

In the case of `Cn1c(=O)[nH]c2[nH]c(=O)n(C)c2c1=O` [1,7-Dimethyluric acid], the “apparent second-order rate constant” value came out at 6.6e+07 ± 1.4e+07.

For the compound `Nc1ccc(S(=O)(=O)Nc2ncccn2)cc1` [Sulfadiazine], the “apparent second-order rate constant” value turned out to be 1.23e+06 ± 110000.

In the case of `CC(=O)Nc1ccc(O)c(SCC(NC(=O)CCC(N)C(=O)O)C(=O)NCC(=O)O)c1` (stereo not drawn) [Paracetamol-glutathione], the “apparent second-order rate constant” value came to 1.1e+07 ± 2.4e+06.

With `O=C(O)C(c1ccccc1)C1CCCCN1` (stereo not drawn) [Ritalinic acid], the “apparent second-order rate constant” value came out at 139 ± 7.2.

Consider `CCC(C(=O)O)N1CCCC1=O` (stereo not drawn) [Levetiracetam acid], for which the “apparent second-order rate constant” value was 0.66 ± 0.08.

For `CC(C(=O)O)c1ccc(C(O)C(C)C)cc1` (stereo not drawn) [1-Hydroxyibuprofen], the “apparent second-order rate constant” value worked out at 14.7 ± 1.6.

Regarding `C#CC[N+](C)([O-])Cc1ccccc1` (stereo not drawn) [Pargyline-N-oxide], the “apparent second-order rate constant” value was found to be 68 ± 8.

As for `COc1ccc2c(c1)c(CC(=O)O)c(C)n2C(=O)c1ccc(Cl)cc1` [Indomethacin], the “apparent second-order rate constant” value was determined as 5.15e+06 ± 670000.

For the compound `CN1CCN2c3ccccc3Cc3ccccc3C2C1` (stereo not drawn) [Mianserin], the “apparent second-order rate constant” value came to 1.94e+06 ± 100000.

For `CNCCCC1(c2ccc(F)cc2)OCc2cc(C#N)ccc21` (stereo not drawn) [N-Desmethylcitalopram], the “apparent second-order rate constant” value was determined as 532 ± 28.

Regarding `Cc1c(CO)cccc1Nc1ccccc1C(=O)O` [3-Hydroxymethylmefenamic acid], the “apparent second-order rate constant” value worked out at 9.3e+07 ± 2e+07.

On to `CC(NC(C)(C)C)C(=O)c1cccc(Cl)c1` (stereo not drawn) [Bupropion], for which the “apparent second-order rate constant” value was 315 ± 15.

`CCOC(=O)c1c(COCC(=O)O)nc(C)c(C(=O)OC)c1-c1ccccc1Cl` [O-Des[2-aminoethyl]-O-carboxymethyl-dehydroamlodipine]: the “apparent second-order rate constant” value was 0.401 ± 0.014.

With `CCCc1nc2c(C)cc(-c3nc4ccccc4n3C)cc2n1Cc1ccc(-c2ccccc2C(=O)O)cc1` [Telmisartan], the “apparent second-order rate constant” value worked out at 120 ± 6.1.

With `NCCC(Oc1ccc(C(F)(F)F)cc1)c1ccccc1` (stereo not drawn) [Norfluoxetine], the “apparent second-order rate constant” value is 42 ± 2.5.

`CC(C)CC(CN)CC(=O)O` (stereo not drawn) [Pregabalin]: the “apparent second-order rate constant” value is 15.6 ± 1.1.

Turning to `CC(=O)OCC(=O)[C@@]1(O)[C@@H](C)C[C@H]2[C@@H]3CCC4=CC(=O)C=C[C@]4(C)[C@@]3(F)[C@@H](O)C[C@@]21C` [Betamethasone-21-acetate], the “apparent second-order rate constant” value stood at 24.4 ± 1.3.

Take `COc1c(C)c2c(c(O)c1CC=C(C)CCC(=O)O)C(=O)OC2` [Mycophenolic acid]: the “apparent second-order rate constant” value worked out at 7.2e+07 ± 1.5e+07.

Consider `COc1ccc2c3c1OC1C(O)C=CC4C(C2)NCCC341` (stereo not drawn) [Norcodeine], for which the “apparent second-order rate constant” value came to 2.68e+06 ± 51000.

As to `N#Cc1ccc2c(c1)COC2(CCCN)c1ccc(F)cc1` (stereo not drawn) [N-Didesmethylcitalopram], the “apparent second-order rate constant” value was 34.3 ± 2.1.

For `CCC1OC(=O)C(C)C(O)C(C)C(OC2OC(C)CC(N(C)C)C2O)C(C)(O)CC(C)CN(C)C(C)C(O)C1(C)O` (stereo not drawn) [Desosaminylazithromycin], the “apparent second-order rate constant” value turned out to be 239000 ± 8000.

`Cc1cccc(Nc2ccncc2S(=O)(=O)NC(=O)NC(C)C)c1` [Torasemide]: the “apparent second-order rate constant” value was determined as 2990 ± 260.

In the case of `CC(C(=O)O)c1cccc(C(=O)c2ccccc2)c1` (stereo not drawn) [Ketoprofen], the “apparent second-order rate constant” value worked out at 0.529 ± 0.016.

For `CNCC(CC(=O)O)CC(C)C` (stereo not drawn) [N-Methylpregabalin], the “apparent second-order rate constant” value worked out at 143 ± 7.6.

For the compound `Cc1cc(N(C2OC(C(=O)O)C(O)C(O)C2O)S(=O)(=O)c2ccc(N)cc2)no1` (stereo not drawn) [Sulfamethoxazole-N1-glucuronide], the “apparent second-order rate constant” value turned out to be 37000 ± 8000.

As for `CC(C)c1nc(N(C)S(C)(=O)=O)nc(-c2ccc(F)cc2)c1C=CC(O)CC(O)CC(=O)O` (stereo not drawn) [Rosuvastatin], the “apparent second-order rate constant” value came out at 3250 ± 260.

Take `C[C@H](C[C@@H](Cc1ccc(-c2ccccc2)cc1)NC(=O)CCC(=O)O)C(=O)O` [Sacubitrilat (LBQ657)]: the “apparent second-order rate constant” value came to 16.7 ± 1.8.

Take `CNCC(O)c1cccc(O)c1` (stereo not drawn) [Phenylephrine]: the “apparent second-order rate constant” value amounted to 158000 ± 7000.

In the case of `CC12CCC(=O)C=C1CCC1C2C(O)CC2(C)C1CCC2(O)C(=O)CO` (stereo not drawn) [Hydrocortisone], the “apparent second-order rate constant” value was 420 ± 25.

As to `CN1CCC23c4c5ccc(O)c4OC2C(O)C=CC3C1C5` (stereo not drawn) [Morphine], the “apparent second-order rate constant” value was found to be 3.8e+07 ± 8e+06.

In the case of `CN(C)CCCC1(c2ccc(F)cc2)OCc2cc(C#N)ccc21` (stereo not drawn) [Citalopram], the “apparent second-order rate constant” value was 12600 ± 1100.

As for `CCC(=O)C(CC(C)N(C)C)(c1ccccc1)c1ccccc1` (stereo not drawn) [Methadone], the “apparent second-order rate constant” value was 4250 ± 360.

As for `CC12C=CC(=O)C=C1CCC1C2C(O)CC2(C)C1CCC2(O)C(=O)CO` (stereo not drawn) [Prednisolone], the “apparent second-order rate constant” value worked out at 104 ± 5.6.

As for `Cc1cc(C)nc(NS(=O)(=O)c2ccc(N)cc2)n1` [Sulfamethazine], the “apparent second-order rate constant” value was 933000 ± 81000.

Regarding `Cc1ccc2nc(-c3ccc(C(=O)O)cc3)c(CC(=O)N(C)C)n2c1` [Zolpidem carboxylic acid], the “apparent second-order rate constant” value turned out to be 6.3e+06 ± 400000.

With `CN(C)CCC(c1ccccc1)c1ccccn1` (stereo not drawn) [Pheniramine], the “apparent second-order rate constant” value stood at 17600 ± 1700.

Consider `Nc1nc(N)[n+]([C@@H]2O[C@H](C(=O)O)[C@@H](O)[C@H](O)[C@H]2O)nc1-c1cccc(Cl)c1Cl` [Lamotrigine-N2-glucuronide], for which the “apparent second-order rate constant” value is 371 ± 20.

Take `Nc1nc(NC2CC2)c2ncn(C3C=CC(CO)C3)c2n1` (stereo not drawn) [Abacavir]: the “apparent second-order rate constant” value came to 8.8e+06 ± 600000.

As to `CN(C=O)CCC(Oc1ccc(C(F)(F)F)cc1)c1ccccc1` (stereo not drawn) [Fluoxetine formamide], the “apparent second-order rate constant” value was found to be 2.7 ± 0.3.
